The values below come from ChEMBL document CHEMBL1140364, “Anxiolytic effects of benzalphthalides” (2005).

What all share (type): functional
Assay [1] relates to Mus musculus. The assay is described as follows: Percentage number of entries into the open arms of the maze for anxiolytic activity in ICR mouse through elevated plus test after intraperitoneal injection of 15 mg/kg.
The test system of assay [2] is Mus musculus. The assay is described as follows: Number of entries into the closed arms of the maze for anxiolytic activity in ICR mouse through elevated plus test after intraperitoneal injection of 15 mg/kg.
The subject of assay [3] is Mus musculus. The assay is described as follows: Number of entries into the open arms of the maze for anxiolytic activity in ICR mouse through elevated plus maze test after intraperitoneal injection of 15 mg/kg.
Assay [4] deals with Mus musculus. The assay is described as follows: Total number of entries into the open and closed arms of the maze for anxiolytic activity in ICR mouse through elevated plus test after intraperitoneal injection of 15 mg/kg.
The test system of assay [5] is Mus musculus. The assay is described as follows: Time spent into the open arms of the maze for anxiolytic activity in ICR mouse through elevated plus maze test after intraperitoneal injection of 15 mg/kg.

Take `C[S+]([O-])c1ccc(/C=C2\OC(=O)c3ccccc32)cc1` (stereo not given): the No. of entries stood at 55.6% with Mus musculus [1], 9 in the assay on Mus musculus [2] and 10.8 in the assay on Mus musculus [3]. Further, in the assay with Mus musculus [4], the “Total number of entries” value came to 19.8. For the same compound, the Spent time in the assay on Mus musculus [5] came to 0.0427 h.
The matching figures for `O=C1O/C(=C\c2ccc([N+](=O)[O-])cc2)c2ccccc21`: 57.2%, 7.3, 9, 16.3 and 0.0441 h.
The matching figures for `CSc1ccc(/C=C2\OC(=O)c3ccccc32)cc1`: 49.5%, 9.9, 7.9, 17.7 and 0.0363 h.
The matching figures for `COc1ccc(/C=C2\OC(=O)c3ccc(C(N)=O)cc32)cc1`: 50.2%, 11.5, 13, 24 and 0.0348 h.
As to `COc1cc(/C=C2\OC(=O)c3ccccc32)cc(OC)c1OC`, the No. of entries in the assay on Mus musculus [1] is reported as 44.8%; with Mus musculus [2] it was 9; with Mus musculus [3], 8.3. Besides, the “Total number of entries” value in the assay on Mus musculus [4] was 17.3. The Spent time in the assay with Mus musculus [5] was 0.0296 h.
The matching figures for `O=C1O/C(=C\c2ccc(Cl)cc2)c2ccccc21`: 55.8%, 8.5, 8, 16.5 and 0.0444 h.
The matching figures for `O=C1O/C(=C\c2ccc3c(c2)OCO3)c2ccccc21`: 54.4%, 9, 11.2, 20.2 and 0.0418 h.
The matching figures for `CS(=O)(=O)c1ccc(/C=C2\OC(=O)c3ccccc32)cc1`: 69.9%, 5.6, 10.6, 16.4 and 0.052 h.
As to `COc1ccc(/C=C2\OC(=O)c3cc([N+](=O)[O-])c([N+](=O)[O-])cc32)cc1`, the No. of entries in the assay on Mus musculus [1] is 51.7%; in the assay with Mus musculus [2], 10.5; in the assay with Mus musculus [3] it was 11.7. Moreover, the “Total number of entries” value with Mus musculus [4] was found to be 22.2. The Spent time in the assay with Mus musculus [5] came out at 0.0359 h.
The matching figures for `CCCCCCCCCCCC(=O)OCCOCC(OCCO)C1OCC(OCCO)C1OCCO` (stereo not given): 51.2%, 8.9, 9.6, 18.5 and 0.034 h.
The matching figures for `COc1ccc(/C=C2\OC(=O)c3ccccc32)cc1`: 64.1%, 7.1, 13, 20.1 and 0.0493 h.
The matching figures for `CN1C(=O)CN=C(c2ccccc2)c2cc(Cl)ccc21` [DIAZEPAM]: 82%, 3.7, 15.8, 19.5 and 0.064 h.
On to `C=C(C)[C@@H]1[C@H]2OC(=O)[C@@H]1[C@]1(O)C[C@H]3OC34C(=O)O[C@H]2[C@@]41C.CC(C)(O)[C@@H]1[C@H]2OC(=O)[C@@H]1[C@]1(O)C[C@H]3OC34C(=O)O[C@H]2[C@@]41C` (stereo not given in full) [PICROTOXIN], for which the No. of entries in the assay on Mus musculus [1] stood at 19%; in the assay on Mus musculus [2], 9.4; in the assay on Mus musculus [3] it was 2.5. The “Total number of entries” value in the assay with Mus musculus [4] was determined as 11.8. For the same compound, the Spent time in the assay with Mus musculus [5] was found to be 0.00739 h.
